Reference: the supplement of paper PMC10307832

Key:
Assay in all cases: relative viability (nuclei count vs DMSO), 5 days (fraction); higher = more cells survive
[1] = compound: CC(C)C[C@H](NC(=O)[C@H](CCc1ccccc1)NC(=O)CN1CCOCC1)C(=O)N[C@@H](Cc1ccccc1)C(=O)N[C@@H](CC(C)C)C(=O)[C@@]1(C)CO1 [Carfilzomib] + CC(=O)c1c(C)c2cnc(Nc3ccc(N4CCNCC4)cn3)nc2n(C2CCCC2)c1=O [Palbociclib] (partner 0.5 µM)
In short: (§1)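 Dosing by pin tool came one day after lung cancer cell lines were seeded in 1536-well plates, using either one drug or a fixed anchor-drug dose plus five library-drug doses (not always all listed) in √10 steps. After 5 days, nuclei were counted on 4× images. Relative viability is treated-well nuclei count divided by vehicle-well nuclei count, and values are medians of duplicate plates.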

Crizotinib + OSI-027 = compound: C[C@@H](Oc1cc(-c2cnn(C3CCNCC3)c2)cnc1N)c1c(Cl)ccc(F)c1Cl [Crizotinib] + COc1cccc2cc(-c3nc([C@H]4CC[C@H](C(=O)O)CC4)n4ncnc(N)c34)[nH]c12 [OSI-027] (partner 0.5 µM)
In short: as §1

Crizotinib + Pictilisib = compound: C[C@@H](Oc1cc(-c2cnn(C3CCNCC3)c2)cnc1N)c1c(Cl)ccc(F)c1Cl [Crizotinib] + CS(=O)(=O)N1CCN(Cc2cc3nc(-c4cccc5[nH]ncc45)nc(N4CCOCC4)c3s2)CC1 [Pictilisib] (partner 1 µM)
In short: as §1

Crizotinib + Phenformin = compound: C[C@@H](Oc1cc(-c2cnn(C3CCNCC3)c2)cnc1N)c1c(Cl)ccc(F)c1Cl [Crizotinib] + N=C(N)NC(=N)NCCc1ccccc1 [Phenformin] (partner 250 µM)
In short: as §1

## NCI-H3122
[1]; first compound 0.001 µM
  relative viability: 0.238
[1]; first compound 0.003162 µM
  relative viability: 0.222
[1]; first compound 0.01 µM
  relative viability: 0.191
[1]; first compound 0.03162 µM
  relative viability: 0.187
[1]; first compound 0.1 µM
  relative viability: 0.132
Crizotinib + OSI-027; first compound 0.01 µM
  relative viability: 0.896
Crizotinib + OSI-027; first compound 0.03162 µM
  relative viability: 0.909
Crizotinib + OSI-027; first compound 0.1 µM
  relative viability: 0.79
Crizotinib + OSI-027; first compound 0.3162 µM
  relative viability: 0.218
Crizotinib + OSI-027; first compound 1 µM
  relative viability: 0.16
Crizotinib + Pictilisib; first compound 0.01 µM
  relative viability: 0.533
Crizotinib + Pictilisib; first compound 0.03162 µM
  relative viability: 0.6
Crizotinib + Pictilisib; first compound 0.1 µM
  relative viability: 0.609
Crizotinib + Pictilisib; first compound 0.3162 µM
  relative viability: 0.434
Crizotinib + Pictilisib; first compound 1 µM
  relative viability: 0.27
Crizotinib + Phenformin; first compound 0.01 µM
  relative viability: 0.374
Crizotinib + Phenformin; first compound 0.03162 µM
  relative viability: 0.38
Crizotinib + Phenformin; first compound 0.1 µM
  relative viability: 0.4
Crizotinib + Phenformin; first compound 0.3162 µM
  relative viability: 0.333
Crizotinib + Phenformin; first compound 1 µM
  relative viability: 0.236

## PC-3 [JPC-3]
[1]; first compound 0.001 µM
  relative viability: 0.516
[1]; first compound 0.003162 µM
  relative viability: 0.539
[1]; first compound 0.01 µM
  relative viability: 0.564
[1]; first compound 0.03162 µM
  relative viability: 0.502
[1]; first compound 0.1 µM
  relative viability: 0.333
Crizotinib + OSI-027; first compound 0.01 µM
  relative viability: 0.786
Crizotinib + OSI-027; first compound 0.03162 µM
  relative viability: 0.802
Crizotinib + OSI-027; first compound 0.1 µM
  relative viability: 0.76
Crizotinib + OSI-027; first compound 0.3162 µM
  relative viability: 0.683
Crizotinib + OSI-027; first compound 1 µM
  relative viability: 0.745
Crizotinib + Pictilisib; first compound 0.01 µM
  relative viability: 0.687
Crizotinib + Pictilisib; first compound 0.03162 µM
  relative viability: 0.804
Crizotinib + Pictilisib; first compound 0.1 µM
  relative viability: 0.722
Crizotinib + Pictilisib; first compound 0.3162 µM
  relative viability: 0.705
Crizotinib + Pictilisib; first compound 1 µM
  relative viability: 0.709
Crizotinib + Phenformin; first compound 0.01 µM
  relative viability: 0.469
Crizotinib + Phenformin; first compound 0.03162 µM
  relative viability: 0.506
Crizotinib + Phenformin; first compound 0.1 µM
  relative viability: 0.482
Crizotinib + Phenformin; first compound 0.3162 µM
  relative viability: 0.452
Crizotinib + Phenformin; first compound 1 µM
  relative viability: 0.482

## PC-14
[1]; first compound 0.001 µM
  relative viability: 0.558
[1]; first compound 0.003162 µM
  relative viability: 0.597
[1]; first compound 0.01 µM
  relative viability: 0.437
[1]; first compound 0.03162 µM
  relative viability: 0.05
[1]; first compound 0.1 µM
  relative viability: 0.0508
Crizotinib + OSI-027; first compound 0.01 µM
  relative viability: 0.826
Crizotinib + OSI-027; first compound 0.03162 µM
  relative viability: 0.898
Crizotinib + OSI-027; first compound 0.1 µM
  relative viability: 0.8
Crizotinib + OSI-027; first compound 0.3162 µM
  relative viability: 0.867
Crizotinib + OSI-027; first compound 1 µM
  relative viability: 1.03
Crizotinib + Pictilisib; first compound 0.01 µM
  relative viability: 0.772
Crizotinib + Pictilisib; first compound 0.03162 µM
  relative viability: 0.775
Crizotinib + Pictilisib; first compound 0.1 µM
  relative viability: 0.708
Crizotinib + Pictilisib; first compound 0.3162 µM
  relative viability: 0.8
Crizotinib + Phenformin; first compound 0.01 µM
  relative viability: 0.562
Crizotinib + Phenformin; first compound 0.03162 µM
  relative viability: 0.675
Crizotinib + Phenformin; first compound 0.1 µM
  relative viability: 0.642
Crizotinib + Phenformin; first compound 0.3162 µM
  relative viability: 0.526
Crizotinib + Phenformin; first compound 1 µM
  relative viability: 0.522

## RERF-LC-KJ
[1]; first compound 0.001 µM
  relative viability: 1.07
[1]; first compound 0.003162 µM
  relative viability: 1.04
[1]; first compound 0.01 µM
  relative viability: 1.27
[1]; first compound 0.03162 µM
  relative viability: 0.837
[1]; first compound 0.1 µM
  relative viability: 0.193
Crizotinib + OSI-027; first compound 0.01 µM
  relative viability: 0.518
Crizotinib + OSI-027; first compound 0.03162 µM
  relative viability: 0.619
Crizotinib + OSI-027; first compound 0.1 µM
  relative viability: 0.521
Crizotinib + OSI-027; first compound 0.3162 µM
  relative viability: 0.542
Crizotinib + OSI-027; first compound 1 µM
  relative viability: 0.612
Crizotinib + Pictilisib; first compound 0.01 µM
  relative viability: 0.502
Crizotinib + Pictilisib; first compound 0.03162 µM
  relative viability: 0.628
Crizotinib + Pictilisib; first compound 0.1 µM
  relative viability: 0.476
Crizotinib + Pictilisib; first compound 0.3162 µM
  relative viability: 0.561
Crizotinib + Pictilisib; first compound 1 µM
  relative viability: 0.621
Crizotinib + Phenformin; first compound 0.03162 µM
  relative viability: 0.421
Crizotinib + Phenformin; first compound 0.1 µM
  relative viability: 0.409
Crizotinib + Phenformin; first compound 0.3162 µM
  relative viability: 0.435
Crizotinib + Phenformin; first compound 1 µM
  relative viability: 0.409

## SK-LU-1
[1]; first compound 0.001 µM
  relative viability: 0.331
[1]; first compound 0.003162 µM
  relative viability: 0.442
[1]; first compound 0.01 µM
  relative viability: 0.336
[1]; first compound 0.03162 µM
  relative viability: 0.266
[1]; first compound 0.1 µM
  relative viability: 0.171
Crizotinib + OSI-027; first compound 0.01 µM
  relative viability: 0.36
Crizotinib + OSI-027; first compound 0.03162 µM
  relative viability: 0.342
Crizotinib + OSI-027; first compound 0.1 µM
  relative viability: 0.331
Crizotinib + OSI-027; first compound 0.3162 µM
  relative viability: 0.324
Crizotinib + OSI-027; first compound 1 µM
  relative viability: 0.353
Crizotinib + Pictilisib; first compound 0.01 µM
  relative viability: 0.613
Crizotinib + Pictilisib; first compound 0.03162 µM
  relative viability: 0.709
Crizotinib + Pictilisib; first compound 0.1 µM
  relative viability: 0.557
Crizotinib + Pictilisib; first compound 0.3162 µM
  relative viability: 0.686
Crizotinib + Pictilisib; first compound 1 µM
  relative viability: 0.567
Crizotinib + Phenformin; first compound 0.01 µM
  relative viability: 0.544
Crizotinib + Phenformin; first compound 0.03162 µM
  relative viability: 0.535
Crizotinib + Phenformin; first compound 0.1 µM
  relative viability: 0.506
Crizotinib + Phenformin; first compound 0.3162 µM
  relative viability: 0.499
Crizotinib + Phenformin; first compound 1 µM
  relative viability: 0.547

## SK-MES-1
[1]; first compound 0.001 µM
  relative viability: 0.387
[1]; first compound 0.003162 µM
  relative viability: 0.344
[1]; first compound 0.01 µM
  relative viability: 0.34
[1]; first compound 0.03162 µM
  relative viability: 0.282
[1]; first compound 0.1 µM
  relative viability: 0.183
Crizotinib + OSI-027; first compound 0.01 µM
  relative viability: 0.612
Crizotinib + OSI-027; first compound 0.03162 µM
  relative viability: 0.646
Crizotinib + OSI-027; first compound 0.1 µM
  relative viability: 0.568
Crizotinib + OSI-027; first compound 0.3162 µM
  relative viability: 0.556
Crizotinib + OSI-027; first compound 1 µM
  relative viability: 0.586
Crizotinib + Pictilisib; first compound 0.01 µM
  relative viability: 0.402
Crizotinib + Pictilisib; first compound 0.03162 µM
  relative viability: 0.311
Crizotinib + Pictilisib; first compound 0.1 µM
  relative viability: 0.35
Crizotinib + Pictilisib; first compound 0.3162 µM
  relative viability: 0.299
Crizotinib + Pictilisib; first compound 1 µM
  relative viability: 0.333
Crizotinib + Phenformin; first compound 0.01 µM
  relative viability: 0.617
Crizotinib + Phenformin; first compound 0.03162 µM
  relative viability: 0.676
Crizotinib + Phenformin; first compound 0.1 µM
  relative viability: 0.638
Crizotinib + Phenformin; first compound 0.3162 µM
  relative viability: 0.645
Crizotinib + Phenformin; first compound 1 µM
  relative viability: 0.593

## SW 1573
[1]; first compound 0.001 µM
  relative viability: 0.396
[1]; first compound 0.003162 µM
  relative viability: 0.5
[1]; first compound 0.01 µM
  relative viability: 0.235
[1]; first compound 0.03162 µM
  relative viability: 0.0595
[1]; first compound 0.1 µM
  relative viability: 0.0481
Crizotinib + OSI-027; first compound 0.01 µM
  relative viability: 0.538
Crizotinib + OSI-027; first compound 0.03162 µM
  relative viability: 0.609
Crizotinib + OSI-027; first compound 0.1 µM
  relative viability: 0.563
Crizotinib + OSI-027; first compound 0.3162 µM
  relative viability: 0.59
Crizotinib + OSI-027; first compound 1 µM
  relative viability: 0.587
Crizotinib + Pictilisib; first compound 0.01 µM
  relative viability: 0.424
Crizotinib + Pictilisib; first compound 0.03162 µM
  relative viability: 0.525
Crizotinib + Pictilisib; first compound 0.1 µM
  relative viability: 0.558
Crizotinib + Pictilisib; first compound 0.3162 µM
  relative viability: 0.459
Crizotinib + Pictilisib; first compound 1 µM
  relative viability: 0.52
Crizotinib + Phenformin; first compound 0.01 µM
  relative viability: 0.418
Crizotinib + Phenformin; first compound 0.03162 µM
  relative viability: 0.376
Crizotinib + Phenformin; first compound 0.1 µM
  relative viability: 0.39
Crizotinib + Phenformin; first compound 0.3162 µM
  relative viability: 0.302
Crizotinib + Phenformin; first compound 1 µM
  relative viability: 0.391

## UMC-11
[1]; first compound 0.001 µM
  relative viability: 0.378
[1]; first compound 0.003162 µM
  relative viability: 0.325
[1]; first compound 0.01 µM
  relative viability: 0.343
[1]; first compound 0.03162 µM
  relative viability: 0.343
[1]; first compound 0.1 µM
  relative viability: 0.277
Crizotinib + OSI-027; first compound 0.01 µM
  relative viability: 0.418
Crizotinib + OSI-027; first compound 0.03162 µM
  relative viability: 0.472
Crizotinib + OSI-027; first compound 0.1 µM
  relative viability: 0.523
Crizotinib + OSI-027; first compound 0.3162 µM
  relative viability: 0.434
Crizotinib + OSI-027; first compound 1 µM
  relative viability: 0.46
Crizotinib + Pictilisib; first compound 0.01 µM
  relative viability: 0.753
Crizotinib + Pictilisib; first compound 0.03162 µM
  relative viability: 0.854
Crizotinib + Pictilisib; first compound 0.1 µM
  relative viability: 0.803
Crizotinib + Pictilisib; first compound 0.3162 µM
  relative viability: 0.161
Crizotinib + Pictilisib; first compound 1 µM
  relative viability: 0.785
Crizotinib + Phenformin; first compound 0.01 µM
  relative viability: 0.259
Crizotinib + Phenformin; first compound 0.03162 µM
  relative viability: 0.339
Crizotinib + Phenformin; first compound 0.1 µM
  relative viability: 0.321
Crizotinib + Phenformin; first compound 0.3162 µM
  relative viability: 0.27
Crizotinib + Phenformin; first compound 1 µM
  relative viability: 0.306
